The values that follow come from patent US10813931B2, “Methods and compositions relating to the treatment of cancer” (THE BRIGHAM AND WOMEN'S HOSPITAL, INC., priority 2013, dated 2020).

For test [1], the system named is taxane-refractory breast cancer explant. Nature of the test: Human refractory breast cancer explant, immunohistochemistry. To be noted: ex vivo 72 h, taxane-containing regimen or Doxil, N=7. As to the method: Anonymous human breast cancer tissues (N=7) from patients refractory to taxane-containing regimens were incubated ex vivo in autologous patient serum in the presence or absence of taxane-containing or liposomal doxorubicin (Doxil) regimens for 72 hours. Following fixation in formalin and paraffin embedding, tissue was processed by H&E to identify tumor cells and immunohistochemistry (IHC) was performed to identify protein expression. IHC scores were determined in a third party blinded fashion by multiplying the intensity of staining at the cellular level with the percentage of cells stained per field of view.
Fresh tumor tissues were collected from breast cancer patients immediately after surgical resection at HCG cancer hospital, Bangalore, India. The tumor samples were transported to the laboratory at 4° C., in appropriate transport buffer within 60 minutes post-resection, for ex-vivo studies and molecular and pathological evaluation. […] After 48 hrs of treatment, tumor cell viability was measured and release of soluble cleaved caspase-3 and caspase-8 were determined.
Human Tumor tissues were fixed in Phos stop (Roche) containing 4% buffered formalin and embedded in paraffin. […] Immunoreactivity was scored by intensity of staining (0, no staining, 1 weak; 2 moderate; 3 strong) and percentage of positive cells. By multiplying both values, a final score was calculated. […]

Test [2] deals with CD44, Src (Y527), PRAS40 T246, Hck. Nature of the test: 4T-1 tumor tissue western blot / IHC of CD44 and kinase phosphorylation. It counts as in vivo, mouse. Particulars: diminished by day 19. The method, then: 4-6 week old Balb/C mice (Charles River, Cambridge Mass.) were inoculated with 10^6 4 T-1 mouse mammary carcinoma cells in the left flank (Charles River, Cambridge Mass.). Mice identified with tumors were treated with docetaxel (DTX) or vehicle twice at 72 hour intervals at 10 mg/kg i.v. or 15 mg/kg i.p. and subsequently treated with dasatinib i.p. or nanoparticles i.v. 72 hours following the final DTX dose. Tumors were harvested at indicated time points and evaluated for protein phosphorylation and expression. Experimental detail provided in supplemental data.
1 million 4T-1 mouse mammary carcinoma cells suspended in 100 µL PBS were injected per left flank of 5-6 week old Balb/C (Charles River, Wilmington Mass.). DTX was dissolved in pure Ethanol at a concentration of 50 mg/ml mixed 1:1 with Polysorbate 80 (Tween 80) and brought to a final working concentration with 5% glucose in PBS. Once Tumors became palpable (˜100 mm^3), DTX or vehicle treatments were administered at 100 μL volumes. Dasatinib was dissolved in DMSO to working concentration and delivered as 50 μL injections on indicated days, 50 µL DMSO used as a control in these studies. Tumor volumes were measured by a third party unaware of treatment conditions using digital calipers (Starlett, Athol, Mass.), volumes were assessed by the following formula: (Width×Width×length)/2 and expressed as relative volume increase from day 1. Tumor homogenate was prepared by homogenization of equal weight tissue sections incubated in 3×RIPA buffer containing 2× protease/phosphatase inhibitor cocktail (Thermo Fisher, Waltham, Mass.).
Cells were generated as described above and plated in 4 chamber glass slides (BD Biosciences, San Jose Calif.) at a concentration of 100,000 cells/ml. Following treatments, cells were washed in PBS and fixed in 4% Paraformaldehyde for 30 minutes. […] Blocking was performed in 10% (v/v) Goat serum in PBS. The cells were labeled with the indicated primary antibodies at 1:100 and tagged with FITC or unconjugated followed by a secondary antibody conjugated with Alexa Fluor 488 or Alexa Fluor 594 (Invitrogen Carlsbad Calif.) at 1:250 were added 24 hours later and incubated for 90 minutes at room temperature in blocking buffer and masked with DAPI-containing hard-set mounting medium (Vector Laboratories, Burlingame Calif.). Bright field and fluorescent images were obtained using three channels on a NIKON Eclipse TI-U microscope with a 20×ELDW, 10× or 40× Plan-Apo objective lens (Nikon, Melville N.Y.). […] For histological quantification, IHC were scored blindly by a clinical pathologist based on number of cells which stain for the target protein (1-4) and multiplied by the intensity of staining as a subjective percentile. This value was expressed as IHC score to quantify the level of staining. […]
In general terms: Immunoblotting shows a protein as a band on a membrane.

`CC(=O)O[C@@]12CO[C@@H]1C[C@H](O)[C@@]1(C)C(=O)[C@H](O)C3=C(C)[C@@H](OC(=O)[C@H](O)[C@@H](NC(=O)OC(C)(C)C)c4ccccc4)C[C@@](O)([C@@H](OC(=O)c4ccccc4)[C@H]21)C3(C)C` [DTX, docetaxel]: the “CD44 expression (IHC)” value in test [1] is “induced the over-expression of CD44”. Moreover, in test [2] (DTX day 9 vs control), the “Hck phosphorylation in tumor (IHC)” value is “markedly enhanced”, the “activated PRAS40 T246 in tumor” value was “enhancement” and the “inhibitory residue of Src (Y527) phosphorylation in tumor” value is on record as “Reduction”. In addition, in test [2] (DTX-treated day 9 vs control day 9), the “CD44 expression in tumor tissue” value was “significantly enhanced CD44 expression”.
